Literature values, collected in patent publication EP2818484A1, “Synergistic combination of an anti-IgE antibody and an EP2 receptor agonist” (Universitat Autònoma de Barcelona, priority 2013, dated 2014).

Test system: human lung mast cells
Conditions: Kay et al., British Journal of Pharmacology 2006, 147, 707

Row | Structure (SMILES) | activation of human lung mast cells
1 | CCCCC[C@H](O)/C=C/[C@H]1[C@H](O)CC(=O)[C@@H]1C/C=C\CCCC(=O)O [PGE2] | inhibit activation
2 | CCCC1([C@H](O)C/C=C/[C@H]2[C@H](O)CC(=O)[C@@H]2CCCCCCC(=O)OC)CCC1 [butaprost] | inhibit activation
